Patent publication US3948886A, “6-Substituted purine 3',5'-cyclic nucleotides” (ICN Pharmaceuticals, Inc., priority 1973, dated 1976)

Experiments:
[1] = system: cyclic AMP-dependent protein kinase; assay: Activation of bovine brain cyclic AMP-dependent protein kinase; assay type: biochemical; conditions: pH 6, relative to cyclic AMP
Method: Cyclic AMP-dependent protein kinase was purified to the stage of DEAE cellulose chromatography from bovine brain using the procedure of Miyamoto et al., J. Biol. Chem. 244, 6395 (1969). Protein kinase activity was assayed by measuring the incorporation of ^32 P-phosphate into histone from γ-^32 P labeled ATP. The incubation mixture contained (amounts in μmoles): sodium glycerol phosphate buffer, pH 6, 10; γ-^32 P-ATP, ~2 × 10^6 cpm, 0.001; magnesium acetate, 2; sodium fluoride, 2; EDTA, 0.06; histone, 40 - 400 μg; cAMP, cGMP or analog as indicated; purified protein kinase, 5 - 25 μg in a final volume of 0.2 ml. Activation constants (Ka) were determined according to the procedure of Muneyama et al., supra. The Ka values relative to cyclic AMP (Ka') are reported in Table IV and compared to Ka' for compound 6.

[2] = system: cyclic AMP phosphodiesterase; assay: Resistance to phosphodiesterase (PDE) degradation; assay type: biochemical; conditions: rabbit kidney PDE, pH 7.5, 37°C
L-929 cells = assay: Interferon potentiation in vitro with L-929 cells; assay type: cell-based
adenyl cyclase = assay: Adenyl cyclase inhibition (guinea pig lung particulate fraction); assay type: biochemical; conditions: guinea pig lung particulate enzyme fraction, 1.2 mM ATP, pH 7.8, 15 min at 37°; read-out: I50 (concentration required for 50% enzyme inhibition)
Method: Lunt alveolar tissue was obtained from normal guinea pigs. The tissue was minced and a Duall tissue grinder was used to prepare a 20% homogenate in chilled buffer containing 1 mM MgCl 2 and 2 mM glycylglycine, pH 7.5 (F. Murad et al., J. Biol. Chem. 237: 1233, 1962). The homogenate was strained through four layers of gauze and centrifuged at 1000xg for 15 min at 4°. The pellet was resuspended in the original volume of buffer and recentrifuged. The pellet was again resuspended in buffer and 0.5 - 1.0 ml aliquots were sealed in ampoules and stored under liquid nitrogen for future assay of adenylate cyclase activity. […] Protein was determined by the method of Lowry et al., J. Biol. Chem. 193: 265, 1951, with crystalline bovine serum albumin as standard.
Adenylate cyclase activity was assayed in duplicate by a modification of previously published methods (G. Krishna et al., J. Pharmacol. Exp. Therap. 163: 379, 1968; G. S. Levey and S. E. Epstein, Circ. Res. 24: 151, 1969). The total assay volume was 0.59 ml and contained 1.8 mM MgCl2, 0.8 mM glycylglycine, 32 mM Tris (pH 7.8), 1.2 mM ATP, 3-5×10^6 cpm [α-^32 P] ATP, and particulate enzyme fraction (100-150 μg. lung protein). Concentrated solutions of compounds to be tested were prepared fresh daily by dissolution in water, ethanol, or dimethyl sulfoxide; 5-10 μl of the solution was added to the incubation mixture to give the desired final concentration. Control assays (without compound) contained solvent alone.
The incubation mixture was reacted for 15 min at 37° in a shaker, and then boiled for 3 min to inactivate the cyclase. One hundred μl of a solution containing 4 μmoles ATP, 1.25 μmoles cyclic AMP, and 0.15μCi [^3 H] cyclic AMP was added to the reaction mixture. […] After centrifugation, 1 ml of supernatant containing [^32 P] cyclic AMP and [^3 H] cyclic AMP was mixed with 15 ml of scintillator (100 g naphthalene, 14 g PPO, and 0.1 g dimethyl POPOP per 2 l dioxane) and counted. […]

Herpes virus Type 1 = assay: Antiviral activity, virus rating (VR) method, Herpes Type 1; assay type: cell-based; conditions: virus rating (VR) method of Sidwell et al.
Source text: (§1) Tested according to the virus rating (VR) method of Sidwell et al., Proc. Soc.

Herpes virus Type 2 = assay: Antiviral activity, virus rating (VR) method, Herpes Type 2; assay type: cell-based; conditions: virus rating (VR) method of Sidwell et al.
Source text: as §1

Rhino viruses = assay: Antiviral activity, virus rating (VR) method, Rhino viruses; assay type: cell-based; conditions: virus rating (VR) method of Sidwell et al.
Source text: as §1

[3] = system: 6-methylthio-purine riboside-resistant Ehrlich carcinomas; assay: Growth inhibition of surgically implanted Ehrlich carcinomas in mice; assay type: in vivo; conditions: intraperitoneally, 83 μmoles/Kg

| Structure (SMILES) | Ka' (= Ka, cyclic AMP/Ka analog) [1] | rate of analog hydrolysis relative to cyclic AMP (α) [2] | interferon potentiation (L-929 cells) | IC50 (adenyl cyclase) | activity against Herpes virus Type 1 (Herpes virus Type 1) | activity against Herpes virus Type 2 (Herpes virus Type 2) | activity against Rhino viruses (Rhino viruses) | inhibition of growth of Ehrlich carcinomas [3] |
| --- | --- | --- | --- | --- | --- | --- | --- | --- |
| O=P1(O)OC[C@H]2O[C@@H](n3cnc4c(=S)[nH]cnc43)[C@H](O)[C@@H]2O1 [Compound 6, 9-β-D-Ribofuranosylpurin-6-thione 3', 5'-cyclic phosphate, reference compound] | 0.56 | 1.06 | did not | – | – | – | – | – |
| CSc1ncnc2c1ncn2[C@@H]1O[C@@H]2COP(=O)(O)O[C@H]2[C@H]1O [Compound 7a, 6-Methylthio-9-β-D-ribofuranosylpurine 3', 5'-cyclic phosphate] | 1.45 | 0.41 | marked interferon potentiation | 340 µM | exhibited activity | exhibited activity | – | – |
| CCSc1ncnc2c1ncn2[C@@H]1O[C@@H]2COP(=O)(O)O[C@H]2[C@H]1O [Compound 7b, 6-Ethylthio-9-β-D-ribofuranosylpurine 3', 5'-cyclic phosphate] | 2.0 | 0.57 | marked interferon potentiation | 1000 µM | exhibited activity | – | exhibited activity | – |
| O=P1(O)OC[C@H]2O[C@@H](n3cnc4c(SCc5ccccc5)ncnc43)[C@H](O)[C@@H]2O1 [Compound 7c, 6-Benzylthio-9-β-D-ribofuranosylpurine 3', 5'-cyclic phosphate] | 1.25 | 0.54 | – | 7000 µM | – | exhibited activity | – | inhibited growth |
